According to PubChem BioAssay AID330 (DTP/NCI, 2004):
“And” between values parts separate entries of the source, which are not always exact repeats. Equal values may be shown once. Inconclusive results and toxic doses are left out. How the source made its calls: active means survival T/C of 150% or more; inactive means T/C below 125% in these data.

Tested on: P388 leukemia ip, CD2F1 mice, survival T/C
Test: NCI In Vivo Anticancer Drug Screen. Data for tumor model P388 Leukemia (intraperitoneal) in CD2F1 (CDF1) mice
Details: endpoint: median survival time, higher = longer survival
Procedure, shortened: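 Mice carrying the transplanted tumor received test compound or vehicle. Survival was recorded in each group, and the value is the treated-group measurement divided by that of the vehicle-treated control group.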

[1] = dose: 50.0 mg/kg/injection, schedule: Q01DX009 (ip), vehicle: Klucel (hydroxypropylcellulose) (HPC)
[2] = dose: 100.0 mg/kg/injection, schedule: Q01DX009 (ip), vehicle: Klucel (hydroxypropylcellulose) (HPC)
[3] = dose: 200.0 mg/kg/injection, schedule: Q01DX009 (ip), vehicle: Klucel (hydroxypropylcellulose) (HPC)
[4] = dose: 50.0 mg/kg/injection, schedule: Q04DX003 (ip), vehicle: saline with Tween-80
[5] = dose: 100.0 mg/kg/injection, schedule: Q04DX003 (ip), vehicle: saline with Tween-80
[6] = dose: 200.0 mg/kg/injection, schedule: Q04DX003 (ip), vehicle: saline with Tween-80
[7] = dose: 50.0 mg/kg/injection, schedule: Q01DX005 (ip), vehicle: Klucel (hydroxypropylcellulose) (HPC)
[8] = dose: 100.0 mg/kg/injection, schedule: Q01DX005 (ip), vehicle: Klucel (hydroxypropylcellulose) (HPC)
[9] = dose: 200.0 mg/kg/injection, schedule: Q01DX005 (ip), vehicle: Klucel (hydroxypropylcellulose) (HPC)
[10] = dose: 100.0 mg/kg/injection, schedule: Q04DX002 (ip), vehicle: saline with Tween-80
[11] = dose: 200.0 mg/kg/injection, schedule: Q04DX002 (ip), vehicle: saline with Tween-80
[12] = dose: 400.0 mg/kg/injection, schedule: Q04DX002 (ip), vehicle: saline with Tween-80
[13] = dose: 100.0 mg/kg/injection, schedule: Q01DX001 (ip), vehicle: Klucel (hydroxypropylcellulose) (HPC)
[14] = dose: 200.0 mg/kg/injection, schedule: Q01DX001 (ip), vehicle: Klucel (hydroxypropylcellulose) (HPC)
[15] = dose: 400.0 mg/kg/injection, schedule: Q01DX001 (ip), vehicle: Klucel (hydroxypropylcellulose) (HPC)
[16] = dose: 50.0 mg/kg/injection, schedule: Q01DX005 (ip), vehicle: saline with Tween-80
[17] = dose: 100.0 mg/kg/injection, schedule: Q01DX005 (ip), vehicle: saline with Tween-80
[18] = dose: 50.0 mg/kg/injection, schedule: Q01DX009 (ip), vehicle: saline with Tween-80
[19] = dose: 100.0 mg/kg/injection, schedule: Q01DX009 (ip), vehicle: saline with Tween-80
[20] = dose: 200.0 mg/kg/injection, schedule: Q01DX009 (ip), vehicle: saline with Tween-80

Measured: T/C

O=C(NC(Sc1ccc(Cl)cc1)C(=O)O)c1ccccc1 (stereo not drawn)
inactive: [1] 104 % of control | [2] 94 % of control | [3] 94 % of control

N#C/C(=C\C=C\c1ccccc1)C(N)=O
inactive: [4] 104 % of control | [5] 104 % of control | [6] 109 % of control

C/C(=C\Cc1cc(O)c(C)cc1O)CC/C=C(\C)Cc1cc(C)co1
inactive: dose: 4.0 mg/kg/injection, schedule: Q01DX009 (ip), vehicle: Klucel (hydroxypropylcellulose) (HPC) 93 % of control | dose: 8.0 mg/kg/injection, schedule: Q01DX009 (ip), vehicle: Klucel (hydroxypropylcellulose) (HPC) 101 % of control | dose: 16.0 mg/kg/injection, schedule: Q01DX009 (ip), vehicle: Klucel (hydroxypropylcellulose) (HPC) 101 % of control | dose: 32.0 mg/kg/injection, schedule: Q01DX009 (ip), vehicle: Klucel (hydroxypropylcellulose) (HPC) 108 % of control

CC1(C)Oc2ccc3ccccc3c2C(c2ccc(O)cc2)=C1c1ccccc1
inactive: [7] 103 % of control | [8] 99 % of control | [9] 94 % of control

C=C1CC[C@H]2C(C)=CC[C@H]3C(=C)C(=O)O[C@@H]3[C@@H]12
inactive: dose: 5.0 mg/kg/injection, schedule: Q01DX009 (ip), vehicle: saline with Tween-80 90 % of control | dose: 10.0 mg/kg/injection, schedule: Q01DX009 (ip), vehicle: saline with Tween-80 91 % of control | dose: 20.0 mg/kg/injection, schedule: Q01DX009 (ip), vehicle: saline with Tween-80 97 % of control | dose: 40.0 mg/kg/injection, schedule: Q01DX009 (ip), vehicle: saline with Tween-80 95 % of control | [10] 107 % of control | [11] 112 % of control | [12] 102 % of control

CS(=O)(=O)OCCN(CCOS(C)(=O)=O)c1ccc([N+](=O)[O-])cc1[N+](=O)[O-]
inactive: [13] 88 % of control | [14] 100 % of control | [15] 103 % of control

COC(=O)c1cnc(N)n1C
inactive: dose: 12.5 mg/kg/injection, schedule: Q01DX009 (ip), vehicle: distilled water + Tween-80 101 % of control

N#Cc1c(C(=O)NN)cc(-c2ccc3ccccc3c2)[nH]c1=O
inactive: [16] 100 % of control | [17] 98 % of control

CCCCN=Cc1c(OC(C)=O)c(OC(C)=O)c(C(C)C)c2cc(C)c(-c3c(C)cc4c(C(C)C)c(OC(C)=O)c(OC(C)=O)c(C=NCCCC)c4c3OC(C)=O)c(OC(C)=O)c12
inactive: dose: 6.25 mg/kg/injection, schedule: Q01DX005 (ip), vehicle: Klucel (hydroxypropylcellulose) (HPC) 95 % of control | dose: 12.5 mg/kg/injection, schedule: Q01DX005 (ip), vehicle: Klucel (hydroxypropylcellulose) (HPC) 98 % of control | dose: 25.0 mg/kg/injection, schedule: Q01DX005 (ip), vehicle: Klucel (hydroxypropylcellulose) (HPC) 97 % of control

CCSC(=O)/C=C\C=[N+](/[O-])OC
inactive: dose: 12.5 mg/kg/injection, schedule: Q01DX009 (ip), vehicle: other 103 % of control | dose: 25.0 mg/kg/injection, schedule: Q01DX009 (ip), vehicle: other 104 % of control | dose: 50.0 mg/kg/injection, schedule: Q01DX009 (ip), vehicle: other 112 % of control and 94 % of control | dose: 100.0 mg/kg/injection, schedule: Q01DX009 (ip), vehicle: other 97 % of control

OC(COc1c2ccccc2nc2ccccc12)CN1CCOCC1 (stereo not drawn)
inactive: [16] 99 % of control | [17] 93 % of control

O=C(c1ccc(Br)cc1)c1ccc(Br)cc1
inactive: dose: 10.0 mg/kg/injection, schedule: Q01DX009 (ip), vehicle: other 100 % of control | dose: 20.0 mg/kg/injection, schedule: Q01DX009 (ip), vehicle: other 105 % of control | dose: 40.0 mg/kg/injection, schedule: Q01DX009 (ip), vehicle: other 92 % of control | dose: 50.0 mg/kg/injection, schedule: Q04DX003 (ip), vehicle: saline 99 % of control | dose: 80.0 mg/kg/injection, schedule: Q01DX009 (ip), vehicle: other 92 % of control | dose: 100.0 mg/kg/injection, schedule: Q04DX003 (ip), vehicle: saline 93 % of control | dose: 160.0 mg/kg/injection, schedule: Q01DX009 (ip), vehicle: other 105 % of control | dose: 200.0 mg/kg/injection, schedule: Q04DX003 (ip), vehicle: saline 94 % of control | dose: 320.0 mg/kg/injection, schedule: Q01DX009 (ip), vehicle: other 100 % of control | dose: 400.0 mg/kg/injection, schedule: Q04DX003 (ip), vehicle: saline 95 % of control

NC(=S)N/N=C1/C(=O)N(c2ccc(S(N)(=O)=O)cc2)C(=O)C1C(=O)Nc1ccc(S(N)(=O)=O)cc1 (stereo not drawn)
inactive: dose: 25.0 mg/kg/injection, schedule: Q04DX002 (ip), vehicle: saline with Tween-80 104 % of control | dose: 50.0 mg/kg/injection, schedule: Q04DX002 (ip), vehicle: saline with Tween-80 100 % of control | [10] 99 % of control and 100 % of control

CNC1C(O)C2Oc3c(cc(O)c4c3C(=O)c3cc5c(c(O)c3C4=O)C(OC3OC(C)C(OC)C(C)(OC)C3OC)CC(C)(O)C5)C(C)(O2)C1O (stereo not drawn)
inactive: dose: 2.06 mg/kg/injection, schedule: Q04DX003 (ip), vehicle: other 97 % of control | dose: 4.12 mg/kg/injection, schedule: Q04DX003 (ip), vehicle: other 102 % of control | dose: 8.25 mg/kg/injection, schedule: Q04DX003 (ip), vehicle: other 103 % of control | dose: 16.5 mg/kg/injection, schedule: Q04DX003 (ip), vehicle: other 124 % of control | dose: 33.0 mg/kg/injection, schedule: Q04DX003 (ip), vehicle: other 124 % of control

O=C(CC(=O)Nc1ccccc1)Cc1ccccc1
inactive: [1] 102 % of control | [2] 97 % of control | [3] 99 % of control

O=C(O)c1cc2ccc(Br)cc2[se]1
inactive: dose: 50.0 mg/kg/injection, schedule: Q01DX009 (ip), vehicle: saline 110 % of control | dose: 100.0 mg/kg/injection, schedule: Q01DX009 (ip), vehicle: saline 99 % of control | dose: 200.0 mg/kg/injection, schedule: Q01DX009 (ip), vehicle: saline 94 % of control

COc1ccccc1C1NC(c2ccccc2OC)C2CCCC1NC2=O (stereo not drawn)
inactive: dose: 100.0 mg/kg/injection, schedule: Q04DX003 (ip), vehicle: suspension in saline 98 % of control | dose: 200.0 mg/kg/injection, schedule: Q04DX003 (ip), vehicle: suspension in saline 98 % of control | dose: 400.0 mg/kg/injection, schedule: Q04DX003 (ip), vehicle: suspension in saline 98 % of control

COC(=O)c1csc(-c2csc(CCNC(=O)c3ccccc3)n2)n1
inactive: [10] 93 % of control | [11] 95 % of control | [12] 96 % of control

O=C(O)/C=C/C(=O)OCCBr
inactive: [18] 104 % of control | [4] 120 % of control | [19] 100 % of control | [5] 120 % of control | [20] 95 % of control | [6] 100 % of control

O=C1C(N=Nc2cc(Cl)ccc2Cl)C(O)N(c2ccccc2)C(=S)N1c1cccc(Cl)c1Cl (stereo not drawn)
inactive: [13] 98 % of control | [14] 97 % of control | [15] 92 % of control

c1ccc(CSc2nnc3c4ccccc4c4ccccc4c3n2)cc1
inactive: [18] 100 % of control | [19] 102 % of control | [20] 101 % of control

[N-]=[N+]=C1N=Nc2ccccc21
inactive: dose: 0.78 mg/kg/injection, schedule: Q01DX005 (ip), vehicle: Klucel (hydroxypropylcellulose) (HPC) 99 % of control | dose: 1.56 mg/kg/injection, schedule: Q01DX005 (ip), vehicle: Klucel (hydroxypropylcellulose) (HPC) 107 % of control | dose: 3.12 mg/kg/injection, schedule: Q01DX005 (ip), vehicle: Klucel (hydroxypropylcellulose) (HPC) 107 % of control

O=C(Nc1ccc(Sc2ccc(N=Nc3c(O)c(S(=O)(=O)O)cc4cc(S(=O)(=O)O)ccc34)cc2)cc1)c1ccc(N=Nc2c(O)ccc3c(S(=O)(=O)O)cc(S(=O)(=O)O)cc23)cc1
inactive: [7] 102 % of control | [8] 97 % of control | [9] 109 % of control
